This note sets out measurements from patent publication US12441722B2, “Therapeutic agents and methods of treatment” (University of Florida Research Foundation, Incorporated, priority 2020, dated 2025).

In general, EC50 refers to the concentration giving half of the maximal effect.

One assay has as its system MOLT4 cells. Put plainly: Protein degradation assay in MOLT4 cells (western blot). The format is cell-based. The conditions noted are these: MOLT4 cells incubated with various concentrations; the FIGURE. The procedure:
MOLT4 cells and human platelets can be incubated with increasing concentrations of test compounds for 16 h. The cells can be harvested and lysed in RIPA lysis buffer supplemented with protease and phosphatase inhibitor cocktails. An equal amount of protein (20 μg/lane) can be resolved on a pre-cast 4-20% SDS-PAGE gel. Proteins can be subsequently transferred to NOVEX PVDF membranes by electrophoresis. The membranes can be blocked in blocking buffer (5% non-fat dry milk in TBS-T), and can be incubated with primary antibodies (at optimized concentrations) overnight at 4° C. After washing in TBS-T, the membranes can be incubated with an appropriate HRP-conjugated secondary antibody for 1 h at room temperature. After extensive washing, the proteins of interest can be detected with ECL western blotting detection reagents and recorded with autoradiography (Pierce Biotech, Rockford, IL, USA). The primary antibodies for Bcl-xL (Cat #2762), Bcl-2 (Cat #2872), Mcl-1 (Cat #5453) and β-actin (Cat #4970) can be purchased from Cell Signaling technology. The relative band intensity can be measured using ImageJ software and normalized to b-actin. The DC50 (concentration with 50% degradation) can be calculated using GraphPad Prism.
On the technique in general: In western blotting, separated proteins are transferred to a membrane and probed.
`Cc1c(-c2ccc(N3CCc4cccc(C(=O)Nc5nc6ccccc6s5)c4C3)nc2C(=O)NCCOCCOCCOCCNc2cccc3c2C(=O)N(C2CCC(=O)NC2=O)C3=O)cnn1CC12CC3CC(CC(C3)C1)C2` (centres unmarked) [degrader #8, 2-(5-(1-(adamantan-1-ylmethyl)-5-methyl-1H-pyrazol-4-yl)-6-((2-(2-(2-(2-((2-(2,6-dioxopiperidin-3-yl)-1,3-dioxoisoindolin-4-yl)amino)ethoxy)ethoxy)ethoxy)ethyl)carbamoyl)pyridin-2-yl)-N-(benzo[d]thiazol-2-yl)-1,2,3,4-tetrahydroisoquinoline-8-carboxamide]: the “protein degradation (western blot)” value is reported as “protein degradation”.

The subject of another assay is MOLT-4. Put plainly: Cell viability assay (tetrazolium-based MTS) in MOLT4 cells. Particulars: Homo sapiens, MOLT-4, MOLT4 acute lymphoblastic leukemia cells, 48 h incubation. How it is done: Cancer cells from acute lymphoblastic leukemia (MOLT4) were incubated with increasing concentrations of compounds of Examples 1-9 for 48 h. Cell viability was measured by tetrazolium-based MTS assay. 5×10^4 to 1×10^5 suspension cells or 3×10^3 to 5×10^3 adherent cells were seeded and treated in 96-well plates for 48 h. The EC50 values of individual agents were calculated with GraphPad Prism.
With `Cc1c(-c2ccc(N3CCc4cccc(C(=O)Nc5nc6ccccc6s5)c4C3)nc2C(=O)NCCOCCOCCOCCNc2cccc3c2C(=O)N(C2CCC(=O)NC2=O)C3=O)cnn1CC12CC3CC(CC(C3)C1)C2` (centres unmarked) [degrader #8, 2-(5-(1-(adamantan-1-ylmethyl)-5-methyl-1H-pyrazol-4-yl)-6-((2-(2-(2-(2-((2-(2,6-dioxopiperidin-3-yl)-1,3-dioxoisoindolin-4-yl)amino)ethoxy)ethoxy)ethoxy)ethyl)carbamoyl)pyridin-2-yl)-N-(benzo[d]thiazol-2-yl)-1,2,3,4-tetrahydroisoquinoline-8-carboxamide], the EC50 is less than 10 nM.
`Cc1c(-c2ccc(N3CCc4cccc(C(=O)Nc5nc6ccccc6s5)c4C3)nc2C(=O)NCCOCCOCCNc2cccc3c2C(=O)N(C2CCC(=O)NC2=O)C3=O)cnn1CC12CC3CC(CC(C3)C1)C2` (centres unmarked) [degrader #7, 2-(5-(1-(adamantan-1-ylmethyl)-5-methyl-1H-pyrazol-4-yl)-6-((2-(2-(2-((2-(2,6-dioxopiperidin-3-yl)-1,3-dioxoisoindolin-4-yl)amino)ethoxy)ethoxy)ethyl)carbamoyl)pyridin-2-yl)-N-(benzo[d]thiazol-2-yl)-1,2,3,4-tetrahydroisoquinoline-8-carboxamide] showed an EC50 of 10 to 100 nM.
Regarding `Cc1c(-c2ccc(N3CCc4cccc(C(=O)Nc5nc6ccccc6s5)c4C3)nc2C(=O)NCCOCCNc2cccc3c2C(=O)N(C2CCC(=O)NC2=O)C3=O)cnn1CC12CC3CC(CC(C3)C1)C2` (centres unmarked) [degrader #6, 2-(5-(1-(adamantan-1-ylmethyl)-5-methyl-1H-pyrazol-4-yl)-6-((2-(2-((2-(2,6-dioxopiperidin-3-yl)-1,3-dioxoisoindolin-4-yl)amino)ethoxy)ethyl)carbamoyl)pyridin-2-yl)-N-(benzo[d]thiazol-2-yl)-1,2,3,4-tetrahydroisoquinoline-8-carboxamide], the concentration giving a half-maximal response (EC50) was in the range of 10 to 100 nM.
Same read-out and setting: under `Cc1ncsc1-c1ccc([C@H](C)NC(=O)[C@@H]2C[C@@H](O)CN2C(=O)[C@@H](NC(=O)CCCCCS(=O)(=O)NC(=O)c2nc(N3CCc4cccc(C(=O)Nc5nc6ccccc6s5)c4C3)ccc2-c2cnn(CC34CC5CC(CC(C5)C3)C4)c2C)C(C)(C)C)cc1` [degrader #11, 2-(5-(1-(adamantan-1-ylmethyl)-5-methyl-1H-pyrazol-4-yl)-6-(((6-(((S)-1-((2S,4R)-4-hydroxy-2-(((S)-1-(4-(4-methylthiazol-5-yl)phenyl)ethyl)carbamoyl)pyrrolidin-1-yl)-3,3-dimethyl-1-oxobutan-2-yl)amino)-6-oxohexyl)sulfonyl)carbamoyl)pyridin-2-yl)-N-(benzo[d]thiazol-2-yl)-1,2,3,4-tetrahydroisoquinoline-8-carboxamide] stands less than 10 nM.
For `Cc1ncsc1-c1ccc([C@H](C)NC(=O)[C@@H]2C[C@@H](O)CN2C(=O)[C@@H](NC(=O)CCCS(=O)(=O)NC(=O)c2nc(N3CCc4cccc(C(=O)Nc5nc6ccccc6s5)c4C3)ccc2-c2cnn(CC34CC5CC(CC(C5)C3)C4)c2C)C(C)(C)C)cc1` [degrader #9, 2-(5-(1-(adamantan-1-ylmethyl)-5-methyl-1H-pyrazol-4-yl)-6-(((4-(((S)-1-((2S,4R)-4-hydroxy-2-(((S)-1-(4-(4-methylthiazol-5-yl)phenyl)ethyl)carbamoyl)pyrrolidin-1-yl)-3,3-dimethyl-1-oxobutan-2-yl)amino)-4-oxobutyl)sulfonyl)carbamoyl)pyridin-2-yl)-N-(benzo[d]thiazol-2-yl)-1,2,3,4-tetrahydroisoquinoline-8-carboxamide], the EC50 is less than 10 nM.
On to `Cc1ncsc1-c1ccc([C@H](CC(=O)NCCCCNC(=O)c2nc(N3CCc4cccc(C(=O)Nc5nc6ccccc6s5)c4C3)ccc2-c2cnn(CC34CC5CC(CC(C5)C3)C4)c2C)NC(=O)[C@@H]2C[C@@H](O)CN2C(=O)[C@@H](NC(=O)C2(C#N)CC2)C(C)(C)C)cc1` [degrader #22, 2-(5-(1-(adamantan-1-ylmethyl)-5-methyl-1H-pyrazol-4-yl)-6-((4-((S)-3-((2S,4R)-1-((S)-2-(1-cyanocyclopropane-1-carboxamido)-3,3-dimethylbutanoyl)-4-hydroxypyrrolidine-2-carboxamido)-3-(4-(4-methylthiazol-5-yl)phenyl)propanamido)butyl)carbamoyl)pyridin-2-yl)-N-(benzo[d]thiazol-2-yl)-1,2,3,4-tetrahydroisoquinoline-8-carboxamide], for which the EC50 is 10 to 100 nM.
Turning to `Cc1ncsc1-c1ccc([C@H](C)NC(=O)[C@@H]2C[C@@H](O)CN2C(=O)[C@@H](NC(=O)CCCCCCCCCS(=O)(=O)NC(=O)c2nc(N3CCc4cccc(C(=O)Nc5nc6ccccc6s5)c4C3)ccc2-c2cnn(CC34CC5CC(CC(C5)C3)C4)c2C)C(C)(C)C)cc1` [degrader #15, 2-(5-(1-(adamantan-1-ylmethyl)-5-methyl-1H-pyrazol-4-yl)-6-(((10-(((S)-1-((2S,4R)-4-hydroxy-2-(((S)-1-(4-(4-methylthiazol-5-yl)phenyl)ethyl)carbamoyl)pyrrolidin-1-yl)-3,3-dimethyl-1-oxobutan-2-yl)amino)-10-oxodecyl)sulfonyl)carbamoyl)pyridin-2-yl)-N-(benzo[d]thiazol-2-yl)-1,2,3,4-tetrahydroisoquinoline-8-carboxamide], the EC50 fell in the range of 10 to 100 nM.

The same assay, now with this note: MOLT4 acute lymphoblastic leukemia cells, 48 h incubation.
`Cc1c(-c2ccc(N3CCc4cccc(C(=O)Nc5nc6ccccc6s5)c4C3)nc2C(=O)O)cnn1CC12CC3CC(C1)CC(C(=O)NCCCCCCCCCCNc1cccc4c1C(=O)N(C1CCC(=O)NC1=O)C4=O)(C3)C2` (centres unmarked) [degrader #37, 6-(8-(benzo[d]thiazol-2-ylcarbamoyl)-3,4-dihydroisoquinolin-2(1H)-yl)-3-(1-(((1r,3r)-3-((10-((2-(2,6-dioxopiperidin-3-yl)-1,3-dioxoisoindolin-4-yl)amino)decyl)carbamoyl)adamantan-1-yl)methyl)-5-methyl-1H-pyrazol-4-yl)picolinic acid] displayed a 50% effective concentration (EC50) of 10 to 100 nM.
`Cc1c(-c2ccc(N3CCc4cccc(C(=O)Nc5nc6ccccc6s5)c4C3)nc2C(=O)NCCOCCOCCOCC#Cc2cccc3c2C(=O)N(C2CCC(=O)NC2=O)C3=O)cnn1CC12CC3CC(CC(C3)C1)C2` (centres unmarked) [degrader #26, 2-(5-(1-(adamantan-1-ylmethyl)-5-methyl-1H-pyrazol-4-yl)-6-((2-(2-(2-((3-(2-(2,6-dioxopiperidin-3-yl)-1,3-dioxoisoindolin-4-yl)prop-2-yn-1-yl)oxy)ethoxy)ethoxy)ethyl)carbamoyl)pyridin-2-yl)-N-(benzo[d]thiazol-2-yl)-1,2,3,4-tetrahydroisocuinoline-8-carboxamide] gave an EC50 of 10 to 100 nM.
The compound `Cc1ncsc1-c1ccc([C@H](C)NC(=O)[C@@H]2C[C@@H](O)CN2C(=O)[C@@H](NC(=O)CCCCCCCCCCCS(=O)(=O)NC(=O)c2nc(N3CCc4cccc(C(=O)Nc5nc6ccccc6s5)c4C3)ccc2-c2cnn(CC34CC5CC(CC(C5)C3)C4)c2C)C(C)(C)C)cc1` [degrader #17, 2-(5-(1-(adamantan-1-ylymethyl)-5-methyl-1H-pyrazol-4-yl)-6-(((12-(((S)-1-((2S,4R)-4-hydroxy-2-(((S)-1-(4-(4-methylthiazol-5-yl)phenyl)ethyl)carbamoyl)pyrrolidin-1-yl)-3,3-dimethyl-1-oxobutan-2-yl)amino)-12-oxododecyl)sulfonyl)carbamoyl)pyridin-2-yl)-N-(benzo[d]thiazol-2-yl)-1,2,3,4-tetrahydroisoquinoline-8-carboxamide] registered an EC50 of 10 to 100 nM.
